Experimental data reported in US11357817B2, “Immunoproteasome inhibitor” (The Regents of the University of California, priority 2017, dated 2022).

Key:
Pf20S = Pf20S (Plasmodium falciparum, UniProt A0A5K1K7U1+Q8IJT1); assay: Calculation of inhibition constants (inactivation kinetics), Pf20S; format: biochemical
Method: (§1) The rate of AMC release was calculated in the presence of serial dilution of each inhibitor. The rate of product formation were calculated at 30 min intervals for 4 hours, and normalized to activity DMSO control to calculate inactivation curves. Kobs values for each inhibitor concentration were calculated from inactivation curves, and inhibition constants KI and kinact were calculated by non-linear regression of Kobs and inhibitor concentration using GraphPad Prism 6 software.

c20S = target: T1, c20S (Homo sapiens, UniProt P20618+P28074); assay: Calculation of inhibition constants (inactivation kinetics), c20S; format: biochemical
T1 construct: purchased Boston Biochem
Method: as §1

HepG2 cells = assay: HepG2 cytotoxicity assay; format: cell-based; conditions: Homo sapiens
Method: The liver-stage and HepG2 toxicity assays were performed as previously reported (35). Briefly, HepG2-A16-CD81EGFP, human hepatocarcinoma HepG2 cells stably transformed to express the tetraspanin CD81 receptor (36, 37) and thus susceptible to P. berghei infection, were cultured at 37° C. in 5% CO2 in DMEM (Life Technologies, Calif.) supplemented with 10% FBS, 0.29 mg/ml glutamine, 100 unit penicillin and 100 μg/ml streptomycin. For both the P. berghei-luciferase and HepG2 cytotoxicity assays, 3×10^3 of the HepG2-A16-CD81EGFP cells in 5 μl of assay medium (DMEM without Phenol Red (Life Technologies, Calif.), 5% FBS, and 5× Pen Strep Glutamine (Life Technologies, Calif.)) at concentration 6×10^5 cells/ml were seeded in 1536-well plates (Greiner BioOne white solid bottom custom GNF mold) 20-26 hours prior to the actual infection. 18 hours prior to infection, 50 nl of compound in DMSO (0.5% final DMSO concentration per well) were transferred with Acoustic Transfer System (ATS) (Biosero) into the assay plates. Atovaquone (12-point serial dilution starting at 10 μM) and Puromycin (12-point serial dilution starting at 10 μM) were used as positive controls for Pb. liver stage assay and HepG2 cytotoxicity respectively. 0.5% DMSO was used as negative control for the both assays.
An. stephensi mosquitoes, infected with P. berghei-luciferase, were provided by the New York University Insectary. P. berghei-luciferase sporozoites were freshly dissected from the infected A. stephensi mosquito salivary glands, filtered twice through a 20 μm nylon net filter using Steriflip Vacuum-Driven Filtration System (Millipore), counted in a hemocytometer, and then adjusted to final concentration 200 sporozoites per μl in the assay media. […] The HepG2-A16-CD81EGFP cell designated for toxicity studies were left uninfected, with 5 ul of additional assay media added to each well to maintain equal concentrations of compounds with P. berghei-luciferase infected plates. After incubation at 37° C. for 48 hours the exoerythrocytic growth and HepG2-A16-CD81EGFP cell viability were quantified by a bioluminescence measurement.
The HepG2 cytotoxicity was assessed by removing the media through an inverted spin of the plates at 150 g for 30 s and addition of 2 μL of CellTiterGlo reagent (Promega diluted 1:2 with deionized water) per well using the MicroFlo liquid handler (BioTek). Immediately after addition of the luminescence reagent, the plates were vortexed for 10 s and read with an EnVision Multilabel reader (PerkinElmer). IC50 values were obtained as above.

[1] = tested on: 20S Plasmodium proteasome (Pf20S) β2 subunit; assay: Proteasome activity assay, Pf20S β2 (z-LRR-AMC); format: biochemical; conditions: 450 nM compound; proteasome not named
Method: (§2) Asynchronous P. falciparum cultures were grown up to 4-5% parasitemia, in 300 mL of RPMI media at 5.0% hematocrit. […] The PBS was removed and lysis buffer (0.15% saponin in PBS) was added on ice in 10 pellet volumes. Upon lysis of red blood cells, indicated by a clear red supernatant, the lysed cultures were centrifuged at 3200×g for 12 minutes at 4° C. The supernatant was removed by aspiration and the cells were washed twice using chilled PBS in microcentrifuge tubes. The cell pellets were then incubated on ice for 1 hour with occasional vortexing in a buffer consisting of 20 mM Tris-HCl pH 7.5, 5 mM MgCl2, 1 mM DTT, 100 μM E-64 and 1 mM AEBSF. This sample was then subjected to 3 rounds of freezing (−80° C.) and thawing (37° C.) and centrifugation at 6000×g for 10 min. The supernatant containing soluble P. falciparum protein was quantified by the BCA method (Pierce).
(§3) P. falciparum proteasome was enriched by two-chromatographic steps reported previously (10). […] The AMC fluorophore release was monitored at Ex 340/Em 465 nm at 24° C. using a Synergy HTX multi-mode reader (Biotek). […] Proteins were eluted using 20 mM Tris-HCl pH 7.5, 100 mM NaCl, 10% glycerol and 1 mL fractions were collected, evaluated for protease activity and pooled. […]

[2] = tested on: 20S Plasmodium proteasome (Pf20S) β1 subunit; assay: Proteasome activity assay, Pf20S β1 (z-LLE-AMC); format: biochemical, Plasmodium falciparum; conditions: 450 nM compound; proteasome not named
Method: as §2, §3

Sequence of Pf20S (A0A5K1K7U1 entry or part of it): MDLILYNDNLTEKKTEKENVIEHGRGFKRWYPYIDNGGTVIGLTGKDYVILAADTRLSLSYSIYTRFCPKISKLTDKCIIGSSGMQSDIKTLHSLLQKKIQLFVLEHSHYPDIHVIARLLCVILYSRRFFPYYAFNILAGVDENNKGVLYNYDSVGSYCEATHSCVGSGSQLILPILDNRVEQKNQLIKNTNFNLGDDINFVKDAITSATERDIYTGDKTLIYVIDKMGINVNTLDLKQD
Sequence of Pf20S (Q8IJT1 entry or part of it): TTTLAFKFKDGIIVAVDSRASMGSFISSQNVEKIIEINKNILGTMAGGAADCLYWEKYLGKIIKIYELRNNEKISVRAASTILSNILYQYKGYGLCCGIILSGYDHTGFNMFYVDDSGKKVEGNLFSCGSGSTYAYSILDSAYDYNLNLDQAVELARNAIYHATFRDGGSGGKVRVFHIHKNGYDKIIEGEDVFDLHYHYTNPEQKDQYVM

SMILES: CCCCCC(=O)N[C@@H](C(=O)N[C@@H](CCCC)C(=O)N[C@@H](CC(C)C)C(=O)[C@@]1(C)CO1)C(C)C [Analog 18, (S)-2-((R)-2-hexanamido-3-methylbutanamido)-N—((S)-4-methyl-1-((R)-2-methyloxiran-2-yl)-1-oxopentan-2-yl)hexanamide]
- Ki (Pf20S; Pf20S): 372 nM
- reduction in potency to the Pf20S proteasome (Pf20S; kinact/Ki, 18 versus 1): 10 fold
- Ki (c20S; c20S): 39.2 µM
- loss in potency to the human c20S proteasome (c20S; kinact/Ki, 18 versus 1): 100 fold
- IC50 (HepG2 cells): 1240 ± 274 nM
- β2 activity reduced [1]: 9%
- β1 activity reduced [2]: 6%
